Reference: ChEMBL document CHEMBL4680355, “Staphylococcus aureus resistance to albocycline can be achieved by mutations that alter cellular NAD/PH pools” (Bioorg Med Chem, 2021)
≈ marks a conversion by molar mass, not a printed value.

Experiments:
Staphylococcus aureus [1] = assay: Antibacterial activity against Staphylococcus aureus UAMS-1 AlbR A resistant mutant assessed as growth inhibition incubated at 16 to 24 hrs by CLSI method; assay type: functional; conditions: time 16-24 hrs
Staphylococcus aureus [2] = assay: Antibacterial activity against Staphylococcus aureus UAMS-1 AlbR B resistant mutant assessed as growth inhibition incubated at 16 to 24 hrs by CLSI method; assay type: functional; conditions: time 16-24 hrs
Staphylococcus aureus [3] = assay: Antibacterial activity against Staphylococcus aureus NE1416 Tn mutant assessed as growth inhibition incubated at 16 to 24 hrs by CLSI method; assay type: functional; conditions: time 16-24 hrs
Staphylococcus aureus [4] = assay: Antibacterial activity against Staphylococcus aureus UAMS-1 AlbR D resistant mutant assessed as growth inhibition incubated at 16 to 24 hrs by CLSI method; assay type: functional; conditions: time 16-24 hrs
Staphylococcus aureus [5] = assay: Antibacterial activity against Staphylococcus aureus UAMS-1 assessed as growth inhibition incubated at 16 to 24 hrs by CLSI method; assay type: functional; conditions: time 16-24 hrs
Staphylococcus aureus [6] = assay: Antibacterial activity against Staphylococcus aureus UAMS-1 AlbR C resistant mutant assessed as growth inhibition incubated at 16 to 24 hrs by CLSI method; assay type: functional; conditions: time 16-24 hrs
Staphylococcus aureus [7] = assay: Antibacterial activity against Staphylococcus aureus USA300 Tn mutant assessed as growth inhibition incubated at 16 to 24 hrs by CLSI method; assay type: functional; conditions: time 16-24 hrs
Staphylococcus aureus [8] = assay: Antibacterial activity against Staphylococcus aureus NE939 Tn mutant assessed as growth inhibition incubated at 16 to 24 hrs by CLSI method; assay type: functional; conditions: time 16-24 hrs
Staphylococcus aureus [9] = assay: Synergistic antibacterial activity against Staphylococcus aureus UAMS-1 AlbR C resistant mutant assessed as fractional inhibitory concentration index in presence of fosfomycin by broth microdilution assay; assay type: functional
Staphylococcus aureus [10] = assay: Inhibition of Staphylococcus aureus MurA expressed in Escherichia coli BL21(DE3) assessed as Vmax for DP-G1cNAc to EU- DP-G1cNAc conversion at 150 uM preincubated for 15 mins by HPLC method (reference value: 0.235 +/- 0.049 uM/min)
[11] = Inhibition of Staphylococcus aureus MurA expressed in Escherichia coli BL21(DE3) assessed as using DP-G1cNAc as substrate preincubated for 15 mins by HPLC method
Staphylococcus aureus [12] = assay: Inhibition of Staphylococcus aureus MurA expressed in Escherichia coli BL21(DE3) assessed as Vmax for DP-G1cNAc to EU- DP-G1cNAc conversion at 100 uM preincubated for 15 mins by HPLC method (reference value: 0.235 +/- 0.049 uM/min)
Staphylococcus aureus [13] = assay: Synergistic antibacterial activity against Staphylococcus aureus UAMS-1 assessed as fractional inhibitory concentration index in presence of fosfomycin by broth microdilution assay; assay type: functional
Staphylococcus aureus [14] = assay: Inhibition of Staphylococcus aureus MurA expressed in Escherichia coli BL21(DE3) assessed as Kcat for DP-G1cNAc to EU- DP-G1cNAc conversion at 150 uM preincubated for 15 mins by HPLC method (reference value: 0.471 +/- 0.994 /min)
Bacterial 70S ribosome [15] = assay: Binding affinity to Staphylococcus aureus 70S ribosome assessed as dissociation constant by measuring reduction in BODIPY-Erythromycin A binding incubated for 1.5 hr by fluorescence polarization assay; assay type: subcellular
Staphylococcus aureus [16] = assay: Inhibition of Staphylococcus aureus MurA expressed in Escherichia coli BL21(DE3) assessed as Kcat for DP-G1cNAc to EU- DP-G1cNAc conversion at 50 uM preincubated for 15 mins by HPLC method (reference value: 0.471 +/- 0.994 /min)
Staphylococcus aureus [17] = assay: Synergistic antibacterial activity against Staphylococcus aureus UAMS-1 AlbR D resistant mutant assessed as fractional inhibitory concentration index in presence of fosfomycin by broth microdilution assay; assay type: functional
Staphylococcus aureus [18] = assay: Inhibition of Staphylococcus aureus MurA expressed in Escherichia coli BL21(DE3) assessed as Vmax for DP-G1cNAc to EU- DP-G1cNAc conversion at 50 uM preincubated for 15 mins by HPLC method (reference value: 0.235 +/- 0.049 uM/min)
Staphylococcus aureus [19] = assay: Inhibition of Staphylococcus aureus MurA expressed in Escherichia coli BL21(DE3) assessed as Kcat for DP-G1cNAc to EU- DP-G1cNAc conversion at 100 uM preincubated for 15 mins by HPLC method (reference value: 0.471 +/- 0.994 /min)
Staphylococcus aureus [20] = assay: Synergistic antibacterial activity against Staphylococcus aureus UAMS-1 AlbR A resistant mutant assessed as fractional inhibitory concentration index in presence of fosfomycin by broth microdilution assay; assay type: functional
Staphylococcus aureus [21] = assay: Synergistic antibacterial activity against Staphylococcus aureus UAMS-1 AlbR B resistant mutant assessed as fractional inhibitory concentration index in presence of fosfomycin by broth microdilution assay; assay type: functional
Bacterial 70S ribosome [22] = assay: Binding affinity to Staphylococcus aureus 70S ribosome assessed as reduction in BODIPY-Erythromycin A binding incubated for 1.5 hr by fluorescence polarization assay; assay type: subcellular

C[C@@H]1O[C@@H]1P(=O)(O)O [FOSFOMYCIN]
MIC (Staphylococcus aureus [1]): 16 µg/mL (≈ 116 µM) | MIC (Staphylococcus aureus [2]): 16 µg/mL (≈ 116 µM) | MIC (Staphylococcus aureus [3]): 16 µg/mL (≈ 116 µM) | MIC (Staphylococcus aureus [4]): 16 µg/mL (≈ 116 µM) | MIC (Staphylococcus aureus [5]): 16 µg/mL (≈ 116 µM) | MIC (Staphylococcus aureus [6]): 16 µg/mL (≈ 116 µM) | MIC (Staphylococcus aureus [7]): 32 µg/mL (≈ 232 µM) | MIC (Staphylococcus aureus [8]): 4 µg/mL (≈ 29 µM)

CO[C@H]1/C=C/[C@@](C)(O)/C=C/C(=O)O[C@H](C)[C@@H](C)CC/C=C/1C
MIC (Staphylococcus aureus [1]): 512 µg/mL (≈ 1660 µM) | MIC (Staphylococcus aureus [2]): 512 µg/mL (≈ 1660 µM) | MIC (Staphylococcus aureus [3]): > 256 µg/mL | fractional inhibitory concentration index (FICI) (Staphylococcus aureus [9]): 0.25 | MIC (Staphylococcus aureus [4]): > 1020 µg/mL | Vmax (Staphylococcus aureus [10]): 0.0476 µM/min | Ki [11]: 23600 nM | MIC (Staphylococcus aureus [5]): 1 µg/mL (≈ 3.24 µM) | Vmax (Staphylococcus aureus [12]): 0.0722 µM/min | fractional inhibitory concentration index (FICI) (Staphylococcus aureus [13]): 1.004 | MIC (Staphylococcus aureus [6]): > 1020 µg/mL | kcat (Staphylococcus aureus [14]): 0.00159 s⁻¹ | Kd (Bacterial 70S ribosome [15]): 2.4 nM | MIC (Staphylococcus aureus [7]): 1 µg/mL (≈ 3.24 µM) | kcat (Staphylococcus aureus [16]): 0.00523 s⁻¹ | fractional inhibitory concentration index (FICI) (Staphylococcus aureus [17]): 0.5 | Vmax (Staphylococcus aureus [18]): 0.157 µM/min | kcat (Staphylococcus aureus [19]): 0.0024 s⁻¹ | fractional inhibitory concentration index (FICI) (Staphylococcus aureus [20]): 0.5 | fractional inhibitory concentration index (FICI) (Staphylococcus aureus [21]): 0.25 | MIC (Staphylococcus aureus [8]): 1 µg/mL (≈ 3.24 µM)

CC[C@H]1OC(=O)[C@@](C)(F)C(=O)[C@H](C)[C@@H](O[C@@H]2O[C@H](C)C[C@H](N(C)C)[C@H]2O)[C@](C)(OC)C[C@@H](C)C(=O)[C@H](C)[C@H]2N(CCCCn3cc(-c4cccc(N)c4)nn3)C(=O)O[C@]12C [SOLITHROMYCIN]
Ki (Bacterial 70S ribosome [22]): 60.3 nM
